Patent publication US8247399B2, “Photoactive metal nitrosyls for blood pressure regulation and cancer therapy” (The Regents of the University of California, priority 2004, dated 2012)
Blank lines part the entries; values can stand above or below the compound they belong to.

Assays:
papain = molecular target: T1, papain (Carica papaya, UniProt P00784); test: Papain inhibition under light (l-BApNA substrate); type: biochemical; conditions: 3 mM nitrosyl 1 mL + papain 3 mg/mL 1 mL, 50 W tungsten lamp 3 min, 25° C., pH 6.2
T1 sequence (P00784 134-345): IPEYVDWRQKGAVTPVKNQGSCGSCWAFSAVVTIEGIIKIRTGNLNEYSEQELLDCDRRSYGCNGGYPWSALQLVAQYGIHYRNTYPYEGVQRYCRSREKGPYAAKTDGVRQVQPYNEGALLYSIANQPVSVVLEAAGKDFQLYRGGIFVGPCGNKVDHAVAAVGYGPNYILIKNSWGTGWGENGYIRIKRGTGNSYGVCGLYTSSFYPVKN
Description: Twice-crystallized papain was activated by stirring the enzyme in 50 mM phosphate buffer (pH 6.2) containing 10 mM dithiothreitol (DTT) for 24 h. The solution was then passed through a Pharmacia 20 mL desalting column equipped with a BioRad FPLC absorbance/electrical-conducting detector at 4° C. The activated protein (devoid of DTT) eluted from the column in 2 minutes at a flow rate of 2 mL/min, and was subsequently lyophilized and stored at −20° C.
Papain activity was determined spectrophotometrically at 410 nm by monitoring the formation of p-nitroaniline from the substrate Nα-Benzoyl-l-arginine-p-nitroanilide (l-BApNA). A 1.5 mM stock solution of l-BApNA was prepared in 50 mM phosphate buffer (pH 6.2, 1 mM EDTA, 0.1 M NaCl) and stored at room temperature. A 4.6 μM stock solution of active papain was also prepared in 50 mM phosphate buffer (pH 6.2, 1 mM EDTA, 0.1 M NaCl) and stored at 0° C. Finally, a freshly prepared 3.0 mM stock solution of 1 was prepared in 50 mM phosphate buffer (pH 6.2, 1 mM EDTA, 0.1 M NaCl) and stored in the dark.
[…] The mixture was then exposed to a 50 W tungsten bulb (Afshar at al., Inorg Chem, 43:5736-5743, 2004) for 60 s and 350 μL of the substrate was quickly added. The residual enzyme activity was monitored at 25° C. […] After each exposure, 350 μL of the substrate was added to the solution and the residual enzyme activity was monitored at 25° C. […]

[1] = Photorelease (photodissociation) of NO from the metal nitrosyl in solution under illumination; type: physicochemical; conditions: for type of light that releases NO: in DMF, UV-cut filters
Text: FIG. 7(A) provides a plot of KNO values versus light power. Increase in A550 of a solution of [(PaPy3)Fe(NO)](ClO4)2 in MeCN upon illumination with a 60 W tungsten lamp (Patra et al., Inorg Chem, 42:6812-6823, 2003), KNO (×10^3 s^−1)=5.60±0.014.
FIG. 8(C) provides a plot of the electronic absorption spectrum of [(bpb)Ru(NO)(Cl)] (broken line) and [(Me2bqb)Ru(NO)(Cl)] (solid line) in DMF. Both nitrosyls are photolabile.
(§1) Dashed line: met-Mb; dash-dot line: reduced Mb; dotted line: a mixture of [(PaPy3)Ru(NO)](BF4)2 and reduced Mb (1.5:1) under ordinary light (20 min); solid line: same mixture exposed to UV (30 s). […] Dash-dot line: oxidized and dash line: reduced enzyme; dotted line: reduced enzyme plus [(PaPy3)Ru(NO)](BF4)2 under ordinary light (20 min); solid line: same mixture exposed to UV light for 30 s (Patra and Mascharak, Inorg Chem, 42:7363-7365, 2003, herein incorporated by reference).
As described herein, nitrosyls like [Fe(PaPy3)(NO)](CIO4)2 and [Mn(PaPy3)(NO)](BF4)2 are converted into the corresponding solvato species [M(PaPy3)(solv)]^2+ following NO loss. Clean isosbestic points in the multiple trace spectra (e.g., FIG. 6B and FIG. 6C) indicate that the [M(PaPy3)(NO)]^2+→[M(PaPy3)(solv)]^2+ transformation is likely devoid of other intermediates. […] Preliminary actinometric measurements have afforded a quantum yield of 0.12 for the light reaction of [Ru(PaPy3)(NO)](BF4)2 in water. Collectively, these properties indicate that the nitrosyl complexes disclosed herein are good light-induced NO donors.
The light characteristics of any one of these metal nitrosyls can be changed (tuned) with minor alterations in the ligand frames such as changing a donor atom or ring size. This is a tremendous advantage of the present approach, thereby freeing users of this technology from the light requirements of photoactive nitrosyls of the prior art, which hereto have been found serendipitously. […] (BF4)2 releases NO only under UV light (λ<350 nm).

rat aortic rings = test: Relaxation of rat thoracic aorta rings precontracted with phenylephrine; conditions: for concentration at which relaxation effect is shown: Ru-drug under UV light, DEA/NO control drug
Description: Male rats (200-250 g; Sprague-Dawley) were stunned and killed by cervical dislocation. The thoracic aortas were carefully removed, cleaned of connective tissue and cut into 3-4 ring segments of approximately 4 mm in length. Aortic rings were mounted in 10 mL organ baths containing Krebs-bicarbonate buffer (composition (mM): Na^+ 143; K^+ 5.9; Ca^2+ 2.5; Mg^2+ 1.2; Cl^− 128; HCO3^− 25; HPO4^2− 1.2; SO4^2− 1.2; D-glucose 11) maintained at 37° C. and gassed with 95% O2/5% CO2. Tension was initially set at 1 g and reset at intervals following an equilibrium period of 1 hour during which time fresh Krebs-bicarbonate buffer was replaced every 15-20 minutes. After equilibrium, the rings were primed with KCl (4.8×10^−2 M) before a supramaximal concentration of phenylephrine (PE; 10^−6 M) was added. Once this response had stabilized, acetylcholine (ACH; 10^−6M) was added to the bath to assess the integrity of endothelium of WT vessels. If the contractions to PE were not maintained, or relaxations greater than 50% of the PE-induced tone to ACH were not observed, the tissues were discarded.
Tissues were then washed for 30 minutes (by addition of fresh Krebs-bicarbonate buffer at 15 minutes intervals) after which cumulative concentrations of PE (10^−9-10^−6 M) were added to the organ bath. The tissues were then washed over 60 minutes to restore basal tone before contracting to approximately 80% of the maximum PE-induced response. Once a stable response to PE was achieved, cumulative concentration-response curves to the NO-donors were constructed in the presence and absence of light ([…]) and the soluble […] ODQ ([…]).

[2] = tested on: rat aortic smooth muscle cells; test: cGMP generation in cultured rat aortic smooth muscle cells; type: cell-based
Description: Primary rat aortic smooth muscle cells were cultured and exposed to increasing log doses of Ru—NO with and without a 5 minute exposure to low-intensity UV light (λmax=254 nm) followed by a 10 minute incubation. The cells were then lysed and the cGMP production was assayed Cyclic GMP accumulation was measured using a commercially available ELISA kit (Amersham Biosciences) as per the manufacturer instructions.

reduced cyt c oxidase = test: Light-triggered NO transfer to reduced cytochrome c oxidase; type: biochemical; conditions: low intensity UV light 30 s
Description: as §1
(§2) When this process is repeated in presence of reduced Mb, the 434 nm Soret band of reduced Mb is rapidly changed to 420 nm indicating formation of the Mb-NO adduct (FIG. 9B). Clearly [Ru(PaPy3)(H2O)](BF4)2 acts as an efficient NO donor that is activated by light. Similar results have been obtained with cytochrome c oxidase. Exposure of a mixture of [Ru(PaPy3)(H2O)](BF4)2 and reduced cytochrome c oxidase to UV light rapidly generated the NO adduct (Soret band at 428 nm, FIG. 9C). […] Other compounds according to the disclosure herein are known to, or are predicted to, have similar results with regard to being able to facilitate NO transfer to Mb and Hb.

reduced Mb = test: Light-triggered NO transfer to reduced myoglobin; type: biochemical; conditions: aqueous solution, low intensity UV light 30 s, nitrosyl:Mb 1.5:1
Description: as §1, §2

Compound: [(PaPy3)Mn(NO)]ClO4
papain enzymatic activity after exposure (papain): completely eliminating the enzymatic activity

Compound: [(bpb)Ru(NO)(Cl)]
type of light that releases NO [1]: releases NO upon illumination with UV light

Compound: [(Me2bqb)Ru(NO)(Cl)]
type of light that releases NO [1]: releases NO upon illumination with visible light

Compound: CCN(CC)/[N+]([O-])=N/[O-].[Na+] [DEA/NO, reference compound]
concentration at which relaxation effect is shown (rat aortic rings): 0.01 µM

wavelength of light under which NO is released [1]: < 350 nm | quantum yield of the light reaction ([1]; in water, preliminary actinometric measurements): 0.12
Compound: [(PaPy3)Ru(NO)](BF4)2
light dependence of relaxation effect (rat aortic rings): only under exposure to light | concentration at which relaxation effect is shown (rat aortic rings): 10 µM | relaxation compared with conventional NO donor (rat aortic rings; UV light): comparable to that observed upon treatment of the tissue with a conventional NO donor (DEA/NO) | contraction of tissue when the light was turned off (rat aortic rings; light turned off): ~25% | increase in cGMP production ([2]; 0.1 mM, low-intensity UV light (λmax=254 nm) 5 min): 13 fold | increase in cGMP concentration in the dark ([2]; dark): not observed in the dark | formation of cyt c oxidase NO-adduct (reduced cyt c oxidase): conversion of reduced cyt c oxidase to its NO-adduct | formation of Mb-NO adduct (reduced Mb): conversion of reduced Mb to Mb-NO

wavelength of light under which NO is released [1]: ~500 nm
Compound: [(PaPy3)Fe(NO)](ClO4)2
KNO (rate of NO loss) ([1]; in MeCN, 60 W tungsten lamp): 5.60±0.014 ×10^3 s^−1
